Two compounds from US20070275911A1, “Targeted Drug-Formaldehyde Conjugates and Methods of Making and Using the Same” (priority 2003, published 2007) can be followed below.

The test system of data set [1] is PC3/AR and PC3/neo cells. The following applies: 3 h treatment / over time. The method, then:
The fluorescence of doxorubicin can be monitored in order to determine the rate of uptake and intracellular distribution of the anthraquinone fluorophore.
This cell suspension was dispensed in 2 mL aliquots into 6-well tissue culture plates. Plates were then incubated for 36 h at 37° C. in a humidified atmosphere of 5% CO2 and 95% air. The medium was replaced with 1 mL of phenol red-free RPMI 1640 growth medium supplemented with 10% dextran-coated charcoal stripped FBS prior to addition of the test compound. The appropriate compound was dissolved in DMSO and the concentration was adjusted to 50-200 μM by measuring the solution absorbance at 480 nm. Addition of 10 μL of the appropriate doxorubicin or prodrug solution was followed by incubation at 37° C. as indicated. The drug solution in individual wells was removed at the appropriate time and the cells were washed with 1 mL of the phenol red-free growth medium. The washed cells were then supplemented with 1 mL of phenol-red free growth medium for imaging.

In data set [2] the test system is Rtx-6 cells. In words: Uptake and estradiol competition by flow cytometry. Type of data set: cell-based. The procedure: The uptake and release in Rtx-6 cells were also investigated. Rtx-6 cells were treated with DOX, DOXSF, or DOX-TEG-TAM as described above to determine both the uptake and the release of drug following a 1 h treatment. DOX-TEG-TAM was taken up to a greater extent than DOX (>3-fold) and DOXSF (>2-fold). The enhanced uptake relative to DOX and DOXSF could be attributed to the presence of ER and the lipophilicity of DOX-TEG-TAM. The uptake of DOX-TEG-TAM in Rtx-6 cells is perhaps best compared to the uptake in the parent MCF-7 cell line. DOX-TEG-TAM was taken up to a greater extent in MCF-7 cells (25 RFU) relative to Rtx-6 cells (14 RFU). One possible explanation for this difference is the presence of both AEBS and ER in MCF-7 cells versus only ER in Rtx-6 cells. […] No further inhibition occurs at higher concentrations, possibly because of non-specific binding of DOX-TEG-TAM at hydrophobic sites in Rtx-6 cells.
Uptake and release of DOX, DOXSF, and DOX-TEG-TAM: The uptake and release of DOX-TEG-TAM in breast cancer cells relative to DOX and untargeted DOXSF was performed as described with modifications. Breast cancer cells in log phase growth were dissociated with trypsin-EDTA, counted, resuspended in media at 1.5×10^5 cells/mL, and plated into six well plates (450,000 cells/well) and allowed to adhere overnight. The cells were treated with 0.5 μM DOX, DOXSF, or DOX-TEG-TAM for various amounts of time (20 min, 40 min, and 60 min). Drug treatment was accomplished by addition of 30 μL of 100× drug solution (50 μM) to 3 mL of media which was mixed and immediately added to the cells. For each time point, the media was removed, cells were trypsinized, and trypsinization was quenched with 3 mL phenol red-free RPMI 1640 media (no serum) at 4° C. Cells were pelleted by centrifugation at 300 g for 5 min at 10° C. The supernatant was decanted and the cells were re-suspended in 1 mL serum- and phenol red-free RPMI 1640 media and placed on ice.
The extent of drug uptake and retention was measured by flow cytometry. Cells were analyzed with excitation at 488 nm (15 mW Ar ion laser), with emission monitored between 570 and 600 nm. Instrument settings were optimized for each cell line and held constant for all experiments; 10,000 cells were analyzed for anthracycline fluorescence. The data are presented as the mean fluorescence for each condition with the background, drug-free cell fluorescence subtracted.
The cell samples were prepared and analyzed by flow cytometry as described above.
In general terms: A flow cytometer gives signals particle by particle.

The target in data set [3] is T1, AEBS (Homo sapiens, UniProt Q15125+Q9UBM7).
T1 construct: MCF-7 cells were utilized as the AEBS source; endogenous in cells; host or cells: MCF-7 cells
In words: AEBS binding, competition with 3H-tamoxifen in MCF-7 cell lysate. The following applies: 50 nM competitor.

Data set [4] can be described thus: Tolerance, acute toxicity and efficacy in mice. To be noted: preliminary mouse in vivo formulation experiments.
The nature of data set [5]: Hydrolysis and stability of DOX-TEG-TAM. Type of data set: physicochemical. The procedure:
Results: Hydrolysis and stability. A standard solution of DOX-TEG-TAM (11c) in dimethylsulfoxide (DMSO) containing 1% v/v acetic acid (AcOH) was diluted 1:100 in two different buffers: lysis buffer (pH 7.4, 10 mM Tris, 1.5 mM EDTA, 10 mM Na2MoO4) used for binding experiments or TE buffer (pH 7.6, 10 MM Tris, 1 mM EDTA). Samples incubated at 37° C. and 4° C. were monitored by HPLC to detect the loss of intact targeted drug and the formation of doxorubicin. The hydrolysis data was fit using first-order reaction kinetics to provide first-order rate constants; the hydrolysis half-life was then calculated using t1/2=ln2/k.
The DOX-TEG-TAM was diluted 1:100 in either pH 7.6 TE buffer (10 mM tris, 1 mM EDTA buffer) or pH 7.4 lysis buffer (10% v/v glycerol, 10 mM Tris, 1.5 mM EDTA, 10 mM Na2MoO4). A sample of each buffer was kept at 37° C. and 4° C. and monitored by HPLC using Method #2 (described above) to track the loss of DOX-TEG-TAM and the subsequent formation of doxorubicin. The area-under-the-curve (AUC) was used to calculate the percentage of intact material versus time. The hydrolysis data were fit to first-order kinetics using Regression (Blackwell Scientific Publishing, London) software. The reaction rate constants were 0.012±0.0007 min^−1 (pH 7.6) and 0.0092±0.0003 min^−1 (pH 7.4) at 37° C.; 0.0058±0.0005 h^−1 (pH 7.6) and 0.0038±0.0003 h^−1 ([…]) at 4° C. The half-life for hydrolysis was then calculated from the rate constants using t1/2=ln2/k.

SMILES strings stand for the structures.

T1 sequence (Q15125 2-230): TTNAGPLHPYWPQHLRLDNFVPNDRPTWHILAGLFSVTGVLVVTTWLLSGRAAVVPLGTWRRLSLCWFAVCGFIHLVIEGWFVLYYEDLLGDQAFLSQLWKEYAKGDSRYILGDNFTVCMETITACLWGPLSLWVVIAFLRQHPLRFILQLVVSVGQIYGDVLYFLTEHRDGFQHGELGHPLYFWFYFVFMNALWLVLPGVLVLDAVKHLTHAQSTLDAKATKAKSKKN
T1 sequence (Q9UBM7 whole entry): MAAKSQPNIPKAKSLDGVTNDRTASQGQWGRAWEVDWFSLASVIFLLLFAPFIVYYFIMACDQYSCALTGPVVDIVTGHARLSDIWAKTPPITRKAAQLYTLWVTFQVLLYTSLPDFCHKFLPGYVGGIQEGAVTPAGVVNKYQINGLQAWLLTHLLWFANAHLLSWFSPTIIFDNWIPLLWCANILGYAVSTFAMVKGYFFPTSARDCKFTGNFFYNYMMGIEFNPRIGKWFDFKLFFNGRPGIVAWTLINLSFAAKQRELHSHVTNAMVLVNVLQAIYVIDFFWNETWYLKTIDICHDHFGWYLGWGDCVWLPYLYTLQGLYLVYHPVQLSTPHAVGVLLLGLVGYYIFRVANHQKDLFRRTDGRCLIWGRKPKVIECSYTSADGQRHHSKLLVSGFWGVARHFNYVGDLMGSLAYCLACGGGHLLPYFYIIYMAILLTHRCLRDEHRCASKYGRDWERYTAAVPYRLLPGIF

Take `COc1cccc2c1C(=O)c1c(O)c3c(c(O)c1C2=O)C[C@@](O)(C(=O)CO)C[C@@H]3O[C@H]1C[C@H](NCNC(=O)c2ccccc2O)[C@H](O)[C@H](C)O1` [doxsaliform, N-(2-Hydroxybenzamido-methyl)-doxorubicin]: the “intracellular distribution of fluorescence over time” value in data set [1] was “exclusive nuclear accumulation of fluorescence”.
Take `CC/C(=C(/c1ccc(O)cc1)c1ccc(OCCN(C)CCOCCOCCO/N=C/c2ccc(O)c(C(=O)NCN[C@H]3C[C@H](O[C@H]4C[C@](O)(C(=O)CO)Cc5c(O)c6c(c(O)c54)C(=O)c4c(OC)cccc4C6=O)O[C@@H](C)[C@H]3O)c2)cc1)c1ccccc1` [11c, E/Z-N-(2-Hydroxy-5-{[2-(2-{2-[(2-{4-[1-(4-hydroxy-phenyl)-2-phenyl-but-1-enyl]-phenoxy}-ethyl)-methyl-amino]-ethoxy}-ethoxy)-ethoxyimino]-methyl}-benzamide)-doxorubicin]: the “fold uptake greater than DOX” value in data set [2] (Rtx-6) is greater than 3 fold. Besides, the “fold uptake greater than DOXSF” value in data set [2] (Rtx-6) is given as greater than 2 fold. Besides, in data set [2] (Rtx-6, 0.5 μM drug, 20 nM estradiol), the “inhibition of uptake by estradiol” value is on record as 70%. Besides, in data set [2] (Rtx-6, 1 h treatment), the “drug uptake (DOX fluorophore)” value was found to be 14 RFU. For the same compound, the “AEBS binding affinity relative to the targeting group” value is on record as 70% in data set [3] (0.05 nM 3H-tamoxifen), 72% in data set [3] (0.5 nM 3H-tamoxifen) and 48% in data set [3] (5 nM 3H-tamoxifen). For the same compound, the acute toxicity result in data set [4] is given as “substantially less than that of doxoform”. The reaction rate constant came to 0.0092 ± 0.0003 min⁻¹ in data set [5] (pH 7.4, 37° C.); 6.33e-05 ± 5e-06 min⁻¹ in data set [5] (pH 7.5, 4° C.); 9.67e-05 ± 8.3e-06 min⁻¹ in data set [5] (pH 7.6, 4° C.); 0.012 ± 0.0007 min⁻¹ in data set [5] (pH 7.6, 37° C.).
